Assay results published in patent US20060167086A1, “Medicinal composition” (priority 2003, published 2006).

Key:
[1] = test system: C2C12 myoblast cell line; test: Relief of TNF-α inhibition of differentiation from myoblasts to muscle cells; type: cell-based, mouse; conditions: 6 days
Procedure: Thus, the inventors investigated whether addition of (−)-DHM2EQ can relieve the inhibitory responses to muscle differentiation by TNF-α, using a differentiation induction system of the C2C12 myoblast cell line. Using DMEM (culture medium) containing 10% FBS a mouse skeletal myogenic cell line, C2C12 (purchased from the RIKEN cell bank) was prepared at 7.5×10^4 cells/ml. Cells were seeded in plastic 12-well plates on coverslips (1 ml/well; Matsunami Glass Ind., Ltd., Osaka, Japan). Subsequently, when cells had grown to confluence, the medium was changed to DMEM (differentiation medium) containing 0.5% heat-inactivated horse serum. Cells to be subjected to the effect of TNF-α (1 ng/ml) and/or (−)-DHMEQ (3 μg/(ml)) were supplemented with each agent at this point. After 6 days, on confirmation of the formation of multinucleated myotubes, a marker of muscle cell differentiation, the medium was removed. The control was prepared by culturing cells in a culture medium at a density such that confluency was reached exactly on day 6.
These cells were washed twice with PBS^− (Ca^2+, Mg^2+-free PBS; 8.0 g/l NaCl, 0.2 g/l KCl, 2.3 g/l NaHPO4.12H2O, 0.2 g/l KH2PO4). […]
Samples thus prepared were mounted on a slide and photographed at 400× magnification with a fluorescence microscope (Nikon UFX-DX; set with a 40× phase contrast objective, Ph2). […]

[2] = test system: hypertrophic fat cells (from precursor fat cell line 3T3-L1); test: Apoptosis induction (TUNEL) in hypertrophic fat cells; type: cell-based
Procedure: It is considered that diseases involving insulin resistance result from TNF-α secreted from hypertrophic fat cells, as mentioned above. Thus, to examine whether (−)-DHM2EQ can induce apoptosis of hypertrophic fat cells, the influence of (−)-DHM2EQ on the hypertrophic fat cells obtained by inducing differentiation of precursor fat cells in long-term culture was investigated. The precursor fat cell line 3T3-L1 (7.5×10^4 cells; 1 ml of DMEM+10% FBS) was plated on coverslips in 12-well plates. A few days after the cells reached confluency, the cell medium was changed to a medium containing 500 μM of 3-isobutyl-1-methylxanthine (IBMX), 1 μM of dexamethasone (Dex), and a medium containing 1 μg/ml of insulin. After culture for 3 days, this medium was changed to a media containing 1 μg/ml insulin, which was cultured for another 3 days, followed by replacement with a normal medium (DMEM containing 10% FBS). Thereafter, medium change was performed every three days continuously till day 50.
On day 50 after differentiation induction, medium change was performed. […] After another 24 h, the medium was removed and hypertrophy fat cells were washed 3 times with 500 μl of PBS (8 g/l NaCl, 0.45 g/l NaH2PO4.2H2O, 1.28 g/l Na2HPO4) for fluorescent antibodies and fixed for 15 min at 4° C. in 500 μl of 4% paraformaldehyde. Subsequently, cells were washed three times with 500 μl of PBS for fluorescent antibodies and treated for 15 min with 0.2% BSA and 0.5% Tween-20 in PBS for fluorescent antibodies.
Subsequently, the coverslips were washed three times with 500 μl of distilled water and then mounted on the paraffin sheet in 150-mm^2 shielded Petri dishes, cells facing upward. TUNEL solution (TdT buffer II/FITC-dUTP/TdT=45 μl/2.5 μl/2.5 μl) was dropped in 45-μl drops onto the coverslips, followed by incubation for 1 h at 37° C. Finally, the coverslips were returned to shielded 12-well plates and washed three times with 1 ml of PBS for fluorescent antibodies. Then the coverslips were removed, mounted on a slide in 50% glycerol, and observed under a fluorescence microscope.

[3] = test system: leukemia cells in which NF-κB is activated; test: Apoptosis of leukemia cells; type: cell-based
[4] = test system: NF-κB; test: NF-κB activation in ATL cells; type: cell-based
[5] = Combination with oncotherapy that activates NF-κB; conditions: used in combination
[6] = test system: breast cancer; conditions: Annual Meeting of the Japanese Cancer Association, 2002; cited from earlier work
[7] = Type II collagen-induced rheumatoid arthritis model mice; type: in vivo; conditions: administration to model mice of type II collagen-induced rheumatoid arthritis
[8] = background statement; cited from earlier work
[9] = test system: normal cells; test: Apoptosis of normal cells; type: cell-based
[10] = Model mice with induced cachexic symptoms; type: in vivo; conditions: administered to model mice with induced cachexic symptoms
[11] = test system: human breast cancer cells; test: Proliferation of human breast cancer cells in vitro and in vivo; type: cell-based; conditions: in a manner not depending on apoptosis
[12] = test system: normal cells; test: Proliferation of normal cells; type: cell-based
[13] = test system: adult T cell leukemia/lymphoma (ATL) cells; test: Apoptosis of ATL cells; type: cell-based
[14] = Bioorg. Med. Chem. Lett. 10, 865-869, 2000; cited from earlier work
[15] = test system: myelocytic leukemia cells in which NF-κB is not activated; test: Proliferation of myelocytic leukemia cells; type: cell-based
[16] = test system: NF-κB; conditions: J. Biol. Chem. 277, 24625-24630, 2002; cited from earlier work
[17] = test system: Hodgkin's-lymphoma cells in which NF-κB is activated; test: Proliferation of Hodgkin's-lymphoma cells; type: cell-based
[18] = test system: human normal leukocytes; test: Apoptosis of human normal leukocytes; type: cell-based; conditions: same concentration as that used in inducing apoptosis of leukemia cells
[19] = test system: adult T cell leukemia/lymphoma (ATL) cells; test: Proliferation of ATL cells; type: cell-based
[20] = test system: prostatic cancer; conditions: Cancer Res. 2003; 63(1):107-10; cited from earlier work
[21] = test system: Undifferentiated human thyroid cancer cell FRO; test: Antitumor effect in thyroid cancer model mice; type: in vivo, BALB/cnu/nu male mice; conditions: 10 mg/kg BW intraperitoneally every day for 10 days; FIG. 6
Procedure: The antitumor effect of (−)-DHM2EQ on human thyroid cancer was investigated. Undifferentiated human thyroid cancer cell suspension FRO (5×10^6 cells; 1200 μl of RPMI-1640) was injected subcutaneously into the flank of 8-week-old BALB/cnu/nu male mice (Charles River, Japan). Subsequently, tumor sizes were measured with calipers every other day, and tumor volume was calculated by formula (a; minor axis of tumor)^2×(b: perpendicular diameter to a)×0.4).

[22] = test system: multiple myeloma cells line KMS-12-PE; test: Antitumor effect in myeloma model mice; type: in vivo, CB17/lcr-SCID mice; conditions: 8 mg/kg BW intraperitoneally every day for 14 days; FIG. 5
Procedure: Next, the antitumor effect of (−)-DHM2EQ on multiple myeloma was investigated. The multiple myeloma cells line KMS-12-PE (Ohtsuki T. et al., Br. J. Hematol. 73, 199-204, 1989) (4×10^7 cells) was dissolved in 0.2 ml of PBS and injected subcutaneously into the left back of CB17/lcr-SCID mice to form tumors. Pieces of these tumors (5 mm^3) were implanted in 10 mice. […] Subsequently, a solution of (−)-DHM2EQ (RPMI1640 medium) was administered intraperitoneally to 5 mice at 8 mg/kg BW every day for 14 days ((−)-DHM2EQ). Another five mice in the control group were given an equal amount of solvent (Control). The diameters of tumors were measured twice a week (Tumor volume=(minor axis)^2×(major axis)×0.52).

[23] = test system: NF-κB; test: Inhibition of NF-κB activity; type: cell-based
[24] = Body weight under high fat diet in obese type 2 diabetes model; type: in vivo; conditions: supplemented to high fat diet, 4 weeks, KKA^y female mice; FIG. 8
Procedure: Four-week-old KKA^y female mice were divided into two groups: the (−)-DHM2EQ group (n=5) and the control group (n 4). A high fat diet (CRF-1; Oriental Yeast Co.) as a basal chow diet was fed ad libitum for 4 weeks to the non-supplemented group (∘: without (−)-DHM2EQ) and the (−)-DHM2EQ-administered group (●: with (−)-DHM2EQ). Body weights of animals were measured weekly. The (−)-DHM2EQ given to mice was ground to fine powder in a mortar, suspended or dissolved in a 5% CMC solution, and supplemented to the high fat diet.

What does the source list for TNF-α [reference compound]?
differentiation induction from myoblasts to muscle cells ([1]; 1 ng/ml TNF-α): suppressed differentiation induction; apoptosis of hypertrophic fat cells ([2]; 10 ng/ml TNF-α alone): did not induce apoptosis

Which “apoptosis of leukemia cells” value [3] does the source give for O=C(NC1=CC(=O)C2OC2C1O)c1ccccc1O (racemic) [(±)-DHM2EQ, 5,6-epoxy-4-hydroxy-3-salicyloylamino-2-cyclohexenone] here?
The value was “induces apoptosis”.

What about the “NF-κB activation in ATL cells” value [4] of the same compound?
Its value is “inhibits NF-κB activation”.

What about the “effect of oncotherapy that activates NF-κB (chemotherapy, radiotherapy)” value [5] of the same compound?
The value was “enhances the effect”.

And the “growth of breast cancer on an organism level” value [6]?
Its value is “strongly suppresses the growth”.

And the arthritic symptoms [7]?
Its arthritic symptoms is “efficacy of (±)-DHM2EQ in suppression of arthritic symptoms”.

What about the toxicity [8] of the same compound?
Its toxicity is “low toxicity”.

And the “apoptosis of normal cells” value [9]?
The value was “does not induce apoptosis”.

What about the cachexic symptoms [10] of the same compound?
The cachexic symptoms was “efficacy of (±)-DHM2EQ in prevention/improvement of cachexic symptoms”.

And the “proliferation of human breast cancer cells” value [11]?
The value was “suppresses proliferation”.

What about the “proliferation of normal cells” value [12] of the same compound?
The value was “does not inhibit proliferation”.

What about the “apoptosis of ATL cells” value [13] of the same compound?
The value was “capable of inducing apoptosis”.

What about the “symptoms in a model mouse of rheumatism” value [14] of the same compound?
Its value is “suppresses symptoms”.

What about the “proliferation of myelocytic leukemia cells” value [15] of the same compound?
Its value is “does not inhibit proliferation”.

And the “NF-κB inhibition on a cellular level” value [16]?
The value was “inhibits NF-κB strongly”.

And the “proliferation of Hodgkin's-lymphoma cells” value [17]?
Its value is “inhibits proliferation”.

What about the “apoptosis of human normal leukocytes” value [18] of the same compound?
The value was “does not in the least induce apoptosis”.

And the “proliferation of ATL cells” value [19]?
Its value is “specifically capable of inhibiting proliferation”.

And the “growth of prostatic cancer on an organism level” value [20]?
The value was “strongly suppresses the growth”.

With O=C(NC1=CC(=O)[C@H]2O[C@H]2[C@H]1O)c1ccccc1O [(−)-DHM2EQ] as the compound, how does the “tumor growth (tumor volume) compared with the control” value [21] read?
The value was “significantly inhibits tumor growth”.

What about the “tumor growth (tumor volume) compared with the control” value [22] of the same compound?
The value was “significantly suppresses tumor growth”.

And the “inhibitory effect on the NF-kappa B activity relative to (±)-DHM2EQ” value [23]?
Its value is “several to ten or more times stronger”.

And the “inhibition by TNF-α of differentiation induction from myoblasts to muscle cells” value ([1]; 1 to 3 μg/ml (−)-DHM2EQ with 1 ng/ml TNF-α, FIG. 9)?
The value was “relieves the inhibition of the differentiation induction”.

And the “apoptosis of hypertrophic fat cells” value ([2]; 10 μg/ml (−)-DHM2EQ alone, without TNF-α)?
Its value is “did not induce apoptosis”.

And the “apoptosis of hypertrophic fat cells” value ([2]; pretreated with 10 mg/ml (−)-DHM2EQ, then stimulation with 10 ng/ml TNF-α, TUNEL, FIG. 7)?
Its value is “induces apoptosis”.

What about the “body weight under high fat diet load” value [24] of the same compound?
Its value is “suppression of body weight”.
